Measured values as given in patent US20170121315A1, “HETEROBICYCLICALLY SUBSTITUTED 4-OXOBUTANE ACID DERIVATIVES AND USE THEREOF” (priority 2014, published 2017).

Molecular target: T1, human macrophage elastase (HME/hMMP-12) (Homo sapiens, UniProt P39900)
T1 construct: purchased R&D Systems 917-MP
Test: In vitro HME inhibition test (standard or high-sensitivity)
Type: biochemical
Details: in some cases mean values, rounded to two significant figures
Method: The potency of the compounds according to the invention with respect to HME (MMP-12) is determined in an in vitro inhibition test. The HME-mediated amidolytic cleavage of a suitable peptide substrate leads to an increase in fluorescent light therein. The signal intensity of the fluorescent light is directly proportional to the enzyme activity. The active concentration of a test compound at which half the enzyme is inhibited (50% signal intensity of the fluorescent light) is reported as the IC50 value.
In a 384 hole microtiter plate, in a total test volume of 41 μl, the test buffer (0.1 M HEPES pH 7.4, 0.15 M NaCl, 0.03 M CaCl2, 0.004 mM ZnCl2, 0.02 M EDTA, 0.005% Brij®), the enzyme (0.5 nM HME; R&D Systems, 917-MP, autocatalytic activation according to the manufacturer's instructions) and the intramolecularly quenched substrate [5 μM Mca-Pro-Leu-Gly-Leu-Glu-Glu-Ala-Dap(Dnp)-NH2; Bachem, M-2670] are incubated in the absence and presence of the test substance (as a solution in DMSO) at 37° C. for two hours. The fluorescence intensity of the test mixtures is measured (excitation […], emission 393 nm). The IC50 values are ascertained by plotting the fluorescent light intensity against the active ingredient concentration.
In this case, an enzyme concentration ten times lower is used (final concentration, e.g. 0.05 nM) in order to achieve an increased test sensitivity. The incubation period chosen for the test is correspondingly longer (e.g. 16 hours).

T1 sequence (P39900 106-470): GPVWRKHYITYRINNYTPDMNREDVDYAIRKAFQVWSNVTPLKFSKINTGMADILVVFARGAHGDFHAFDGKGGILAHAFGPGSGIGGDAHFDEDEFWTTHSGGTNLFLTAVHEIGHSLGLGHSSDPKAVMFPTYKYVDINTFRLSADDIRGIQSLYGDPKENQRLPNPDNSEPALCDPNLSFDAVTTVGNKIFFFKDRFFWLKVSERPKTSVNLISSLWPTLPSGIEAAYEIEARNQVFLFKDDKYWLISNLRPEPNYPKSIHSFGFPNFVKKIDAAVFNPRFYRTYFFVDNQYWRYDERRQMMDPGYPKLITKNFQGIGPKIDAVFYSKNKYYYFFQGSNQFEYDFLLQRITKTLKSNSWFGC

Structure (SMILES) | IC50
O=C(CC(CCn1nnc2ccccc2c1=O)C(=O)O)c1cc2cc(OCC3CCCC3)ccc2o1 (racemic) [Example 16, (+/−)-4-[5-(Cyclopentylmethoxy)-1-benzofur-2-yl]-4-oxo-2-[2-(4-oxo-1,2,3-benzotriazin-3(4H)-yl)ethyl]butanoic acid] | 24 nM
O=C(CC(CCn1nnc2ccccc2c1=O)C(=O)O)c1coc2cc(OCC3CCCC3)ccc12 (racemic) [Example 78, (+/−)-4-[6-(Cyclopentylmethoxy)-1-benzofur-3-yl]-4-oxo-2-[2-(4-oxo-1,2,3-benzotriazin-3(4H)-yl)ethyl]butanoic acid] | 2 nM
O=C(CC(CCn1nnc2ccccc2c1=O)C(=O)O)c1cc2cc(OCc3ccc(F)cc3)ccc2o1 (racemic) [Example 22, (+/−)-4-{5-[(4-Fluorobenzyl)oxy]-1-benzofur-2-yl}-4-oxo-2-[2-(4-oxo-1,2,3-benzotriazin-3(4H)-yl)ethyl]butanoic acid] | 2.5 nM
O=C(O)[C@@H]1[C@@H](Cn2nnc3ccc(C(F)(F)F)cc3c2=O)CC[C@H]1C(=O)c1cc2cc(OCCc3ccccc3)ccc2o1 (single isomer, unassigned; enantiomer 1) [Example 158, (−)-(1RS,2SR,5RS)-2-{[4-Oxo-6-(trifluoromethyl)-1,2,3-benzotriazin-3(4H)-yl]methyl}-5-{[5-(2-phenylethoxy)-1-benzofur-2-yl]carbonyl}cyclopentanecarboxylic acid (enantiomer 1)] | 260 nM
O=C(CC(CCn1nnc2ccccc2c1=O)C(=O)O)c1coc2cc(OCC3CCOCC3)ccc12 (single isomer, unassigned; (+)) [Example 96, (+)-4-Oxo-2-[2-(4-oxo-1,2,3-benzotriazin-3(4H)-yl)ethyl]-4-[6-(tetrahydro-2H-pyran-4-ylmethoxy)-1-benzofur-3-yl]butanoic acid] | 0.81 nM
CCCCCCOc1ccc2cc(C(=O)CC(CCn3nnc4ccccc4c3=O)C(=O)O)oc2c1 (single isomer, unassigned; (+)) [Example 66, (+)-4-[6-(Hexyloxy)-1-benzofur-2-yl]-4-oxo-2-[2-(4-oxo-1,2,3-benzotriazin-3(4H)-yl)ethyl]butanoic acid] | 2.4 nM
O=C(CC(CCn1nnc2ccccc2c1=O)C(=O)O)c1cc2cc(OCCCc3ccc(C(F)(F)F)cc3)ccc2o1 (racemic) [Example 42, (+/−)-4-Oxo-2-[2-(4-oxo-1,2,3-benzotriazin-3(4H)-yl)ethyl]-4-(5-{3-[4-(trifluoromethyl)phenyl]propoxy}-1-benzofur-2-yl)butanoic acid] | 3.2 nM
O=C(CC(CCn1nnc2ccccc2c1=O)C(=O)O)c1cc2ccc(OCC3CCC3)cc2s1 (racemic) [Example 121, (+/−)-4-[6-(Cyclobutylmethoxy)-1-benzothiophen-2-yl]-4-oxo-2-[2-(4-oxo-1,2,3-benzotriazin-3(4H)-yl)ethyl]butanoic acid] | 3.1 nM
O=C(CC(CCn1nnc2ccc(C(F)(F)F)cc2c1=O)C(=O)O)c1cc2ccc(OCC3CC3)cc2s1 (racemic) [Example 128, (+/−)-4-[6-(Cyclopropylmethoxy)-1-benzothiophen-2-yl]-4-oxo-2-{2-[4-oxo-6-(trifluoromethyl)-1,2,3-benzotriazin-3(4H)-yl]ethyl}butanoic acid] | 1.1 nM
CCCOc1ccc2c(C(=O)CC(CCn3nnc4ccccc4c3=O)C(=O)O)coc2c1 (single isomer, unassigned; (-)) [Example 87, (−)-4-Oxo-2-[2-(4-oxo-1,2,3-benzotriazin-3(4H)-yl)ethyl]-4-(6-propoxy-1-benzofur-3-yl)butanoic acid] | 470 nM
O=C(CC(CCn1nnc2ccccc2c1=O)C(=O)O)c1cc2cc(OCc3ccc(Cl)c(Cl)c3)ccc2o1 (single isomer, unassigned; (+)) [Example 27, (+)-4-{5-[(3,4-Dichlorobenzyl)oxy]-1-benzofur-2-yl}-4-oxo-2-[2-(4-oxo-1,2,3-benzotriazin-3(4H)-yl)ethyl]butanoic acid] | 0.19 nM
O=C(CC(CCn1nnc2ccccc2c1=O)C(=O)O)c1coc2cc(OCc3ccccc3)ccc12 (single isomer, unassigned; (+)) [Example 85, (+)-4-[6-(Benzyloxy)-1-benzofur-3-yl]-4-oxo-2-[2-(4-oxo-1,2,3-benzotriazin-3(4H)-yl)ethyl]butanoic acid] | 0.38 nM
CCCCCCOc1ccc2c(C(=O)CC(CCn3nnc4ccccc4c3=O)C(=O)O)coc2c1 (single isomer, unassigned; (-)) [Example 99, (−)-4-[6-(Hexyloxy)-1-benzofur-3-yl]-4-oxo-2-[2-(4-oxo-1,2,3-benzotriazin-3(4H)-yl)ethyl]butanoic acid] | 100 nM
Cc1ccccc1CCOc1ccc2oc(C(=O)CC(CCn3nnc4ccccc4c3=O)C(=O)O)cc2c1 (racemic) [Example 4, (+/−)-4-{5-[2-(2-Methylphenyl)ethoxy]-1-benzofur-2-yl}-4-oxo-2-[2-(4-oxo-1,2,3-benzotriazin-3(4H)-yl)ethyl]butanoic acid] | 4.3 nM
O=C(CC(CCn1nnc2ccccc2c1=O)C(=O)O)c1noc2cc(OCCC3CCCCC3)ccc12 (racemic) [Example 141, (+/−)-4-[6-(2-Cyclohexylethoxy)-1,2-benzoxazol-3-yl]-4-oxo-2-[2-(4-oxo-1,2,3-benzotriazin-3(4H)-yl)ethyl]butanoic acid] | 0.12 nM
O=C(CC(CCn1nnc2ccccc2c1=O)C(=O)O)c1cc2cc(OCCCc3cccs3)ccc2o1 (racemic) [Example 46, (+/−)-4-Oxo-2-[2-(4-oxo-1,2,3-benzotriazin-3(4H)-yl)ethyl]-4-{5-[3-(2-thienyl)propoxy]-1-benzofur-2-yl}butanoic acid] | 1.9 nM
O=C(CC(CCn1nnc2ccccc2c1=O)C(=O)O)c1cc2cc(OCC3(F)CCOCC3)ccc2o1 (racemic) [Example 14, (+/−)-4-{5-[(4-Fluorotetrahydro-2H-pyran-4-yl)methoxy]-1-benzofur-2-yl}-4-oxo-2-[2-(4-oxo-1,2,3-benzotriazin-3(4H)-yl)ethyl]butanoic acid] | 0.65 nM
CCCOc1ccc2c(C(=O)CC(CCn3nnc4ccccc4c3=O)C(=O)O)coc2c1 (single isomer, unassigned; (+)) [Example 88, (+)-4-Oxo-2-[2-(4-oxo-1,2,3-benzotriazin-3(4H)-yl)ethyl]-4-(6-propoxy-1-benzofur-3-yl)butanoic acid] | 1.1 nM
O=C(CC(CCn1nnc2ccccc2c1=O)C(=O)O)c1noc2cc(OCC3CCCC3)ccc12 (racemic) [Example 152, (+/−)-4-[6-(Cyclopentylmethoxy)-1,2-benzoxazol-3-yl]-4-oxo-2-[2-(4-oxo-1,2,3-benzotriazin-3(4H)-yl)ethyl]butanoic acid] | 1.4 nM
CCCOc1ccc2cc(C(=O)CC(CCn3nnc4ccccc4c3=O)C(=O)O)oc2c1 (single isomer, unassigned) [Example 60, 4-Oxo-2-[2-(4-oxo-1,2,3-benzotriazin-3(4H)-yl)ethyl]-4-(6-propoxy-1-benzofur-2-yl)butanoic acid] | 1.8 nM
CCCCOc1ccc2cc(C(=O)CC(CCn3nnc4ccccc4c3=O)C(=O)O)oc2c1 (single isomer, unassigned; (-)) [Example 62, (−)-4-(6-Butoxy-1-benzofur-2-yl)-4-oxo-2-[2-(4-oxo-1,2,3-benzotriazin-3(4H)-yl)ethyl]butanoic acid] | 570 nM
O=C(CC(CCn1nnc2ccccc2c1=O)C(=O)O)c1cc2cc(OCc3ccccc3)ccc2o1 (single isomer, unassigned; (-)) [Example 29, (−)-4-[5-(Benzyloxy)-1-benzofur-2-yl]-4-oxo-2-[2-(4-oxo-1,2,3-benzotriazin-3(4H)-yl)ethyl]butanoic acid] | 770 nM
CC(C)COc1ccc2c(C(=O)CC(CCn3nnc4ccccc4c3=O)C(=O)O)coc2c1 (single isomer, unassigned; (+)) [Example 105, (+)-4-(6-Isobutoxy-1-benzofur-3-yl)-4-oxo-2-[2-(4-oxo-1,2,3-benzotriazin-3(4H)-yl)ethyl]butanoic acid] | 0.21 nM
O=C(CC(CCn1nnc2ccccc2c1=O)C(=O)O)c1noc2cc(OCc3ccc(Cl)cc3)ccc12 (racemic) [Example 147, (+/−)-4-{6-[(4-Chlorobenzyl)oxy]-1,2-benzoxazol-3-yl}-4-oxo-2-[2-(4-oxo-1,2,3-benzotriazin-3(4H)-yl)ethyl]butanoic acid] | 1.7 nM
O=C(CC(CCn1nnc2ccccc2c1=O)C(=O)O)c1coc2cc(OCc3ccc(Cl)c(Cl)c3)ccc12 (single isomer, unassigned) [Example 93, 4-{6-[(3,4-Dichlorobenzyl)oxy]-1-benzofur-3-yl}-4-oxo-2-[2-(4-oxo-1,2,3-benzotriazin-3(4H)-yl)ethyl]butanoic acid] | 97 nM
O=C(CC(CCn1nnc2ccccc2c1=O)C(=O)O)c1noc2cc(OCCC3CCOCC3)ccc12 (racemic) [Example 149, (+/−)-4-Oxo-2-[2-(4-oxo-1,2,3-benzotriazin-3(4H)-yl)ethyl]-4-{6-[2-(tetrahydro-2H-pyran-4-yl)ethoxy]-1,2-benzoxazol-3-yl}butanoic acid] | 0.58 nM
